Where “and” joins values, the source holds several entries; their conditions need not be identical. Equal entries are not always repeated. Peptide text beside a SMILES is read from it. * marks the point of attachment. Cbz = O=C(OCc1ccccc1)*
Tests used:
PSD-95 ubiquitination = PSD-95 ubiquitination in acute forebrain slices (PSD-95 immunoprecipitation, ubiquitin/FK1/FK2 immunoblot); assay type: cell-based, mouse
[1] = system: colocalization of Mdm2 with PSD-95; test: Colocalization of Mdm2 with PSD-95 puncta in cultured hippocampal neurons (immunocytochemistry); assay type: cell-based, rat; settings: roscovitine 10 μM, 45 min; control 100%±24.8%; n=4; mean±SEM
Protocol: Representative confocal images from each condition are shown; Mdm2 (green) and PSD-95 (red) (scale bars, 10 μm). […] The number of costained puncta, as a percentage of total PSD-95 puncta, are expressed as a percentage of the number for DMSO controls.
(§1) Dissociated hippocampal cultures were prepared from E17-E18 rat brains as described previously (Zhang et al., 2008). Hippocampal neurons were plated on coverslips coated with poly-D-lysine and laminin at a density of 6600/cm2 and grown in Neurobasal medium supplemented with B27 and GlutaMax (Invitrogen) for 17-21 days in vitro (DIV). […] Images from each experiment were thresholded using identical values and analyzed by MetaMorph software. The colocalization was expressed as mean±S.E.M. and statistically compared using Student's t-test.
Mdm2 has been identified as the ubiquitin ligase for PSD-95 in ubiquitination assays and in transfected Mdm2 knockout mouse embryonic fibroblasts (Colledge et al., 2003). […] To investigate whether Cdk5 regulates the interaction between Mdm2 and PSD-95, PSD-95 immunoprecipitated from brain lysates was analyzed in p35 knockout mice and wild-type littermates by immunoblotting with an Mdm2 antibody (FIG. 2A). […]

[2] = system: colocalization of β-adaptin with PSD-95; test: Colocalization of β-adaptin with PSD-95 puncta in cultured hippocampal neurons; assay type: cell-based, rat; settings: roscovitine 10 μM, 45 min; control 100%±15.6%; n=5; mean±SEM
Protocol: C. […] Representative confocal images from each condition are shown; β-adaptin and PSD-95 (scale bars, 10 μm). […] The number of costained puncta, as a percentage of total number of PSD-95 puncta, is expressed as a percentage of the number for DMSO control.
as §1
To assess whether PSD-95 monoubiquitination correlates with increased PSD-95 interaction with AP-2 in vivo, p35 knockout mice were analyzed, which have increased PSD-95 monoubiquitination. PSD-95 immunoprecipitated from brain lysates of p35 knockout and wildtype littermates was analyzed by β-adaptin immunoblot (FIG. 4B).

PSD-95 protein levels = PSD-95 protein levels in acute forebrain slices (immunoblot, normalized to actin); assay type: cell-based, mouse; settings: roscovitine 10 μM, 45 min; control 100%±15.8%; n=3; p>0.5
Protocol: PSD-95 immunoreactivity was normalized to that of actin and expressed as a percentage of DMSO control.
Brains of adult p35 knockout mice and control littermates were gifts of Dr. Li-Huei Tsai (MIT). Brain lysates were prepared according to Zhang et al., (2008). Briefly, brains (without cerebellum) were first homogenized and lysed in 1% deoxycholate (DOC) lysis buffer (150 mM NaCl, 1% DOC, 50 mM Tris, pH 8.8), to which an equal volume of modified radioimmunoprecipitation assay (RIPA) buffer was added (150 mM NaCl, 1 mM ethylenediaminetetraacetic acid (EDTA), 1% Triton X-100, 0.1% SDS, 50 mM Tris/HCl pH 7.4) (Kalia et al., 2006). […] Protein concentrations of the lysates were determined by Detergent Compatible Protein Assay (Bio-Rad) and lysates (inputs) were analyzed by western blot to determine whether similar amounts of proteins were used in the experiments. […] Western blots were visualized by enhanced chemiluminescence (ECL, Amersham) and immunoreactive bands were digitally scanned and quantified with ImageJ software (NIH). Values were expressed as mean±S.E.M. and statistically compared using Student's t-test.
Acute forebrain slices were prepared as previously described (Patel et al., 2003; Zhang et al., 2008). […] Values were expressed as mean±S.E.M. and statistically compared using analysis of variance (ANOVA). […]

PSD-95 degradation = settings: Colledge et al., 2003; cited from earlier work
[3] = system: interaction of β-adaptin with PSD-95; test: NMDA-dependent interaction of PSD-95 with β-adaptin in acute forebrain slices (co-immunoprecipitation); assay type: cell-based, mouse; settings: NMDA 100 μM, 3 min; for interaction of β-adaptin with PSD-95 (percentage of p53 knockout unstimulated control): n=3
Protocol: A. Immunoblot showing that NMDA receptors regulate the interaction of PSD-95 with β-adaptin. Acute forebrain slices from wild-type mice were stimulated with NMDA (100 μM, 3 min) and, after NMDA washout, incubated for additional 5 or 10 min.
B. Immunoblot showing that genetic deletion of Mdm2 reduces the NMDA-dependent interaction of PSD-95 with β-adaptin. Acute forebrain slices from p53 knockout (control) and Mdm2/p53 double knockout mice were stimulated with NMDA (100 μM, 3 min) and, after NMDA washout, incubated for an additional 5 or 10 min.
Acute forebrain slices were prepared as previously described (Patel et al., 2003; Zhang et al., 2008). Briefly, brains of adult wild-type, p53 knockout or Mdm2/p53 double knockout mice were isolated, and 300 μm coronal slices of forebrain (within the region corresponding approximately to Bregma −1.0 to −3.5 mm, containing the hippocampus) were prepared using a Vibratome (Leica Microsystems VT1000S) in ice-cold oxygenated artificial cerebrospinal fluid (ACSF: 117 mM NaCl, 1.7 mM KCl, 1.2 mM MgCl2, 2.5 mM CaCl2, 1.2 mM NaH2PO4, 25 mM NaHCO3, 11.5 mM glucose). Slices were preincubated in ACSF for 1 h before treatments and all experiments were conducted at 32° C. in 95% O2 and 5% CO2 incubator. NMDA treatment was conducted by incubating slices with 100 μM NMDA for 3 min in ACSFcLTD (124 mM NaCl, 5 mM KCl, 1.5 mM MgCl2, 2.5 mM CaCl2, 1.25 mM NaH2PO4, 26 mM NaHCO3, 10 mM glucose) (Lee et al., 1998). After agonist washout, the slices were further incubated in ACSF-cLTD for the time indicated (5-10 min). Slice lysates were prepared as previously described (Zhang et al., 2008) and PSD-95 immunoprecipitated from the lysates was analyzed by Western blot and quantified as described above. Values were expressed as mean±S.E.M. and statistically compared using analysis of variance (ANOVA).
PSD-95 is important for NMDAR-induced endocytosis of synaptic AMPARs (Colledge et al., 2003; Bhattacharyya et al., 2009) and a brief application of NMDA induces both a rapid and transient increase in PSD-95 ubiquitination, which peaks approximately 10 min after the onset of NMDA treatment (Colledge et al., 2003). […] Following a brief (3 min) stimulation with 100 μM NMDA, a treatment that induces AMPAR endocytosis (Bhattacharyya et al., 2009), acute forebrain slices from adult wildtype mice were analyzed at 5 min and 10 min after agonist washout. PSD-95 immunoprecipitated from slice lysates was analyzed for coimmunoprecipitation of β-adaptin and ubiquitination (FIG. 5A).
To further investigate whether ubiquitination of PSD-95 promotes the interaction of PSD-95 with β-adaptin, this interaction was investigated in acute brain slices derived from mice with a genetic deletion of the ubiquitin ligase Mdm2. Acute forebrain slices from adult Mdm2/p53 double knockout mice and control p53 knockout mice were analyzed at 5 min and 10 min after NMDA (100 μM, 3 min) washout. The interaction of PSD-95 with β-adaptin was assessed by immunoblot of PSD-95 immunoprecipitated from slice lysates (FIG. 5B).

[4] = system: surface GluA2 (AMPAR) in hippocampal neurons; test: NMDA-induced AMPAR endocytosis: surface GluA2 by antibody feeding in hippocampal cultures; assay type: cell-based, rat; settings: NMDA 100 μM for 3 min
Protocol: A. Micrograph showing GluA2 surface expression upon NMDA treatment in the presence or absence of Nutlin-3. Cultured hippocampal neurons were subjected to an antibody feeding protocol using an antibody that recognizes an extracellular domain of GluA2. The neurons were subsequently pretreated with Nutlin-3 (5 μM for 30 min) prior to NMDA treatment (100 μM for 3 min), followed by agonist washout. Neurons were incubated for an additional 15 min (with or without Nutlin-3) before immunocytochemical analysis of PSD-95 and surface GluA2 by confocal microscopy.
B. A bar graph depicting the proportion of GluA2 found at the surface of cultured hippocampal neurons upon treatment with or without NMDA, in the presence or absence of Nutlin-3. Results are presented as mean±SEM.
Brief stimulation of NMDARs induces AMPAR endocytosis in cultured neurons (Colledge et al., 2003; Bhattacharyya et al., 2009). To determine whether Nutlin-3a antagonizes NMDA-induced AMPAR endocytosis, measured as loss of surface AMPAR staining, the surface expression of GluA2 (a subunit of AMPARs in rat hippocampal cultures) was assessed. Surface GluA2 were labeled in vivo by an antibody feeding protocol using an antibody that recognizes an extracellular domain of GluA2 (Ehlers, 2000; Lin et al., 2000; Bhattacharyya et al., 2009). Neurons were pretreated with Nutlin-3a (5 μM for 30 min) prior to NMDA treatment. After brief stimulation with NMDA (100 μM for 3 min) and agonist washout, neurons were incubated for an additional 15 min (with or without Nutlin-3a) before immunocytochemical analysis of PSD-95 and surface GluA2 by confocal microscopy under the same settings. Immunostained puncta were quantified using MetaMorph software (3 neurons from 2 coverslips with approximately 450 puncta analyzed/condition) and the number of GluA2 puncta was normalized to the number of PSD-95 puncta.
Naïve and NMDA-stimulated conditions were used as controls. […]

3×Tg-AD mice = settings: Martinez-Coria-LaFeria, 2010; cited from earlier work
[5] = roscovitine 10 μM, 45 min, acute mouse forebrain slices

Q: What does the source list for `CC[C@H](CO)Nc1nc(NCc2ccccc2)c2ncn(C(C)C)c2n1` [roscovitine]?
A: increase in PSD-95 ubiquitination (PSD-95 ubiquitination; [5]): more than 2 fold; kind of PSD-95 ubiquitination (FK2 immunoreactive, FK1 not) (PSD-95 ubiquitination; [5]): increases PSD-95 monoubiquitination on multiple lysines; ubiquitination of PSD-95 (ubiquitin immunoreactivity normalized to immunoprecipitated PSD-95, percentage of DMSO control) (PSD-95 ubiquitination; roscovitine 10 μM, 45 min, acute mouse forebrain slices, control 100%±54.5%, n=4, mean±SEM): 274.6%±71.6%; puncta positive for both PSD-95 and Mdm2 (percentage of DMSO control) [1]: 149%±27.4%; puncta positive for both PSD-95 and β-adaptin (percentage of DMSO control) [2]: 192.5%±19%; PSD-95 protein levels (normalized to actin, percentage of DMSO control) (PSD-95 protein levels): 103.7%±18.7%

Q: With `CC(C)C[C@@H](C=O)NC(=O)[C@H](CC(C)C)NC(=O)[C@H](CC(C)C)NC(=O)OCc1ccccc1` [MG132] (Cbz-Leu-Leu-Leu-aldehyde) as the compound, how does the “effect on PSD-95 degradation” value (PSD-95 degradation) read?
A: The value was “protect PSD-95 from degradation”.

Q: For `CN[C@H](CC(=O)O)C(=O)O` [NMDA, N-Methyl-D-aspartic acid], which “PSD-95 ubiquitination (FK2 immunoblot) versus unstimulated control” value (PSD-95 ubiquitination; wild-type slices, NMDA 100 μM, 3 min, 10 min after washout) is on record?
A: Its value is “increased ubiquitination at 10 min after NMDA washout”.

Q: What about the “interaction of β-adaptin with PSD-95 (percentage of p53 knockout unstimulated control)” value ([3]; Mdm2/p53 double knockout slices, 5 min after washout) of the same compound?
A: The value was 45.6%±1.8%.

Q: What about the “interaction of β-adaptin with PSD-95 (percentage of p53 knockout unstimulated control)” value ([3]; Mdm2/p53 double knockout slices, 10 min after washout) of the same compound?
A: Its value is 99.8%±43.7%.

Q: And the “interaction of β-adaptin with PSD-95 (percentage of p53 knockout unstimulated control)” value ([3]; p53 knockout slices, 5 min after washout, control 100%±14.9%)?
A: Its value is 209.0%±72.6%.

Q: And the “interaction of β-adaptin with PSD-95 (percentage of p53 knockout unstimulated control)” value ([3]; p53 knockout slices, 10 min after washout)?
A: Its value is 549.8%±168% and 549.8%±167.7%.

Q: What about the “coimmunoprecipitation of β-adaptin with PSD-95 versus unstimulated control” value ([3]; wild-type slices, 10 min after washout) of the same compound?
A: Its value is “coimmunoprecipitation of β-adaptin with PSD-95 10 min after NMDA washout”.

Q: And the “PSD-95 puncta following NMDA stimulation of naïve cultures” value [4]?
A: The value was “did not decrease”.

Q: What about the “GluA2 surface expression (GluA2 puncta normalized to PSD-95 puncta, versus naïve control)” value ([4]; then 15 min, no inhibitor, naïve 100%±9.47%, n=3) of the same compound?
A: Its value is 41.95±9.63%.

Q: What does the source list for `CC12CC3CC(C)(C1)CC(N)(C3)C2` [Memantine, 1-amino-3,5-dimethyl-adamantane]?
A: AD-like neuropathology in 3×Tg-AD mice (3×Tg-AD mice): reduce AD-like neuropathology; cognition in 3×Tg-AD mice (3×Tg-AD mice): improve cognition

Source: patent US10016414B2, “Modulation of ubiquitination of synaptic proteins for the treatment of neurodegenerative and psychiatric disorders” (UNIVERSITY OF MASSACHUSETTS, priority 2010, dated 2018)
